Experimental data published in patent US7777047B2, “Indole compound” (Takeda Pharmaceutical Company Limited, priority 2006, dated 2010).

Assays:
[1] = molecular target: T1, GST-hLGK1 (human liver GK) (Homo sapiens, UniProt P35557); assay: Determination of GK activity value (GST-hLGK1, Mant-ATP, capillary electrophoresis); assay type: biochemical; conditions: glucokinase activation; GST-hLGK1, D-glucose, 37° C. for 60 min; concentration at midpoint between maximum activity value and control group activity value
T1 construct: made in house; host or cells: Escherichia coli BL21 (Stratagene), plasmid pGEX6P-2/hLGK1
T1 sequence (P35557 1-464 isoform P35557-3): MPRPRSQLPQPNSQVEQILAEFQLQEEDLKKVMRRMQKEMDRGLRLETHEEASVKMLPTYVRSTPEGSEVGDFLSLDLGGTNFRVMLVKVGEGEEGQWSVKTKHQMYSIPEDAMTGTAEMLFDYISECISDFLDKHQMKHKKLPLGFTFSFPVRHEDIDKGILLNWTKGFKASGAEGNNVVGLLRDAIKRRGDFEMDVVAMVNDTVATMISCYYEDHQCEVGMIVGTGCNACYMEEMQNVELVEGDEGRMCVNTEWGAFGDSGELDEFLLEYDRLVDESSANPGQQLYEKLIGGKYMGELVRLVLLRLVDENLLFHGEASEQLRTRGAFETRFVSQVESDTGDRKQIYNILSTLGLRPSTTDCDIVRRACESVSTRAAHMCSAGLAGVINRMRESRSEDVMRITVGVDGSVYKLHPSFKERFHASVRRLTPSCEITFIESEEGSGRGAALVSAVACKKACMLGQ
Protocol: Plasmid DNA to be used for the expression of a protein (GST-hLGK1) containing GST (Glutathione S-transferase) added to the amino terminal of human liver GK in Escherichia coli was prepared as follows.
BL21 strain (Stratagene) transformed with pGEX6P-2/hLGK1 obtained in Reference Example 1A was cultured with shaking at 37° C. for 14 hr in a 200 ml Erlenmeyer flask containing 50 ml of 100 μg/ml ampicillin-containing LB medium. The culture medium (25 ml) was diluted with 225 ml of 100 μg/ml ampicillin-containing LB medium, and further cultured with shaking at 37° C. for 1 hr in a 1 L Erlenmeyer flask. After culture, the Erlenmeyer flask was cooled on ice, 125 μL of 100 mM isopropyl-thio-β-D-galactopyranoside (IPTG) was added (final concentration 50 μM), and cultured at 17° C. for 20 hr. The culture medium was centrifuged, and the obtained fungus was disrupted by ultrasonication. The object protein (GST-hLGK1) was purified from the supernatant using Glutathione Sepharose 4B (Amersham Biosciences K.K.).
A solution (5 μL) of test compound in 50% dimethyl sulfoxide was added to each well of 384 well black plate (Nalge Nunc International K.K.). Then, a solution ([…]) obtained by diluting GST-hLGK1 obtained in Reference Example 2A with measurement buffer (containing 50 mM HEPES (pH 7.4), 200 mM KCl, 5 mM MgCl2, 2.5 mM DTT and 50 μM 2′-(or-3′)-O—(N-methylanthraniloyl)adenosine 5′-triphosphate (Mant-ATP) (Jena Bioscience GmbH)) to 6 μg/mL was added to each well.
Each well was stood at 37° C. for 10 min, and 25 mM D-glucose solution (10 μL) was added to start the reaction.
Each well after the reaction was stood at 37° C. for 60 min, and the reaction was quenched by adding 25 μL of a quenching solution (containing 200 mM HEPES (pH 7.4), 20 mM MgCl2, 200 mM EDTA, 0.03% Triton-X 100, 0.3% Coating 3 reagent (Caliper Life Sciences, Inc.)).
2′-(or-3′)-O—(N-methylanthraniloyl)adenosine 5′-triphosphate (Mant-ATP, substrate) and Mant-ADP (reaction resultant product) were separated from each well after the reaction by a microchip type capillary electrophoresis apparatus 250 HTS (Caliper Life Sciences, Inc.). The reaction rate [(reaction resultant product peak height)/(reaction resultant product peak height+substrate peak height)×100(%)] was calculated from the ratio of the substrate peak height and reaction resultant product peak height obtained by fluorescence detection (excitation wavelength 355 nm, measurement wavelength 460 nm) and used as the index of GK activity.
As a control group, the reaction rate was calculated in the same manner as above except that “solution in 50% dimethyl sulfoxide (without test compound)” was used instead of “solution of test compound in 50% dimethyl sulfoxide”.
A concentration dependency curve of the test compound was drawn with the percentage obtained by dividing the reaction rate of the well added with the test compound (test compound addition group) by the reaction rate of the control group was taken as the GK activity value of the test compound, and the concentration of the test compound at the midpoint between the maximum activity value of the test compound addition group and the control group activity value is shown as EC50 value.

SMILES: CN(c1cccc2cc(C3=NCC(CC(N)=O)S3)[nH]c12)S(=O)(=O)c1ccccn1 (single isomer, unassigned) [Example 337, 2-(2-{7-[methyl(pyridin-2-ylsulfonyl)amino]-1H-indol-2-yl}-4,5-dihydro-1,3-thiazol-5-yl)acetamide]
- melting point: 149 to 150 °C
- EC50 [1]: 82 nM

SMILES: CN(c1cccc2cc(C3=NCC4(CCOCC4)S3)[nH]c12)S(=O)(=O)c1cccs1 [Example 243, N-methyl-N-[2-(8-oxa-1-thia-3-azaspiro[4.5]dec-2-en-2-yl)-1H-indol-7-yl]thiophene-2-sulfonamide]
- EC50 [1]: 24 nM

SMILES: COCCOc1cc(N(C)S(=O)(=O)c2ccccn2)c2[nH]c(C3=N[C@H](CO)CS3)cc2c1 [Example 253, N-[2-[(4R)-4-(hydroxymethyl)-4,5-dihydro-1,3-thiazol-2-yl]-5-(2-methoxyethoxy)-1H-indol-7-yl]-N-methylpyridine-2-sulfonamide]
- EC50 [1]: 210 nM

SMILES: COCCOc1cc(N(C)S(=O)(=O)c2ccccn2)c2[nH]c(C3=N[C@@H](CO)CS3)cc2c1 [Example 254, N-[2-[(4S)-4-(hydroxymethyl)-4,5-dihydro-1,3-thiazol-2-yl]-5-(2-methoxyethoxy)-1H-indol-7-yl]-N-methylpyridine-2-sulfonamide]
- EC50 [1]: 200 nM

SMILES: CN(c1cccc2cc(C3=NCC4(CCN(CC(N)=O)CC4)S3)[nH]c12)S(=O)(=O)c1cccs1 [Example 414, 2-(2-{7-[methyl(2-thienylsulfonyl)amino]-1H-indol-2-yl}-1-thia-3,8-diazaspiro[4.5]dec-2-en-8-yl)acetamide]
- melting point: 226 °C
- EC50 [1]: 37 nM
